# Results reported in ChEMBL document CHEMBL1154739, “Synthesis and AChE inhibitory activity of new chiral tetrahydroacridine analogues from terpenic cyclanones” (Eur J Med Chem, 2010).
# Target: T1, Acetylcholinesterase (Rattus norvegicus, UniProt P37136)
# T1 sequence (P37136 whole entry): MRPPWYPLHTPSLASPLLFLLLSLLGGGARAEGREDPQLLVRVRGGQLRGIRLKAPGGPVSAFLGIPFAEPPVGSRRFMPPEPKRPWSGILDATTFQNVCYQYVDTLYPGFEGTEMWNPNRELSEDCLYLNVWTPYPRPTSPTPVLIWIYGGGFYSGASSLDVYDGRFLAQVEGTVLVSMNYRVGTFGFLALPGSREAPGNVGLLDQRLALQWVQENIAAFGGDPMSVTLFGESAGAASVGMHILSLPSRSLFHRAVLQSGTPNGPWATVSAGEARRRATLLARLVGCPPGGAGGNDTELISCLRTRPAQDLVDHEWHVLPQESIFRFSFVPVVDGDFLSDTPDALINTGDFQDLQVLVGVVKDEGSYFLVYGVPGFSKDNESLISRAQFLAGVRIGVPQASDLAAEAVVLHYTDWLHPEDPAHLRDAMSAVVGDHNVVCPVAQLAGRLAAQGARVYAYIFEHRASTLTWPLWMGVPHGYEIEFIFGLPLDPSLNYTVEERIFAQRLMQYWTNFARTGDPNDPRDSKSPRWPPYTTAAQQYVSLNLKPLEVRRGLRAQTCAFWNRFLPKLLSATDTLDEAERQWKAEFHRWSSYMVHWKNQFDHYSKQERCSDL
# Description: Inhibition of AChE from rat cortex by Ellman assay
row,Compound,IC50 [nM]
1,C[C@@H]1c2c(nc3ccccc3c2N)[C@H]2C[C@@H]1C2(C)C,2620
2,C[C@@H]1CCc2c(nc3ccccc3c2N)C1,1380
3,CC(C)[C@H]1CC[C@H](C(C)C)c2c1nc1ccccc1c2N,7220
4,CC1(C)[C@H]2Cc3c(nc4ccccc4c3N)[C@@H]1C2,1930
5,CC(C)[C@H]1CCc2c(nc3ccccc3c2N)C1,816
6,C[C@H]1CC[C@H](C(C)(C)C)c2nc3ccccc3c(N)c21,1350
7,C[C@H]1CC(=O)C(C)(C)c2nc3ccccc3c(N)c2C1,288
8,C[C@H]1Cc2nc3ccccc3c(N)c2C1,61
9,CC(C)[C@@H]1Cc2nc3ccccc3c(N)c2C1,2450
